Assay results reported in patent US11976043B1, “3-cyano-2-ethoxy-9-(2-nitrobenzylidene)-4-(2-nitrophenyl)-6,7,8,9-tetrahydro-5H-cyclohepta[b]pyridine as an antimicrobial compound” (KING FAISAL UNIVERSITY, priority 2023, dated 2024).

Assays:
Conditions in all cases: after 10, 20, 40 and 60 min at all dilutions 1:100, 1:200, 1:400, 1:800
Candida albicans = assay: Antimicrobial testing by agar dilution, Candida albicans; type: cell-based
Experimental: (§1) The antimicrobial properties of the 3-cyano-2-ethoxy-9-(2-nitrobenzylidene)-4-(2-nitrophenyl)-6,7,8,9-tetrahydro-5H-cyclohepta[b]pyridine was studied by the method of agar dilution. Test solutions of each compound was prepared in concentration of 1% using dimethylformamide as a solvent then they are diluted in physiological solution to obtain the final experimental dilutions 1:100, 1:200, 1:400, 1:800. The effect of these substances are compared with furacillin in a controlable study. The testing microbes used were gram positive bacteria St. Aereus, gram negative bacteria E. coli, Ps. aeruginosa and Candida albicans fungi were taken.
(§2) The experiments used for this survey were meat-pentonlu agar (EPA) for cultivation of bacteria and Saburo environment for fungi. Each experiment used 1 ml of test solution on each plate 500 min. Add 2 drops of emulsified with microbes feel. All experimental samples were taken from the agar after 10, 20, 40, 60 minutes in the environment on the basis of Patrk planted. Bacteria were cultivated at a temperature of 37° C. for 1 day and the mushroom was kept in a thermostat for […] at a temperature of 28° C. in the. Then results were checked.

St. Aereus = assay: Antimicrobial testing by agar dilution, St. Aereus; type: cell-based, Staphylococcus aureus
Experimental: as §1, §2

E. coli = assay: Antimicrobial testing by agar dilution, E. coli; type: cell-based, Escherichia coli
Experimental: as §1, §2

Ps. aeruginosa = assay: Antimicrobial testing by agar dilution, Ps. aeruginosa; type: cell-based, Pseudomonas aeruginosa
Experimental: as §1, §2

Measured: inhibition activity (in words)

CCOc1nc2c(c(-c3ccccc3[N+](=O)[O-])c1C#N)CCCCC2=Cc1ccccc1[N+](=O)[O-] [3-cyano-2-ethoxy-9-(2-nitrobenzylidene)-4-(2-nitrophenyl)-6,7,8,9-tetrahydro-5H-cyclohepta[b]pyridine]
most higher inhibition activity: Candida albicans | St. Aereus | E. coli | Ps. aeruginosa
